Assay results taken from patent US5959145A, “Fatty acid analog enzyme substrates” (priority 1993, dated 1999).
“Also recorded” adds a separate entry of the source. No end group written: not given here. *: point of attachment. 11‑(ethylthio)undecanoyl = CCSCCCCCCCCCCC(=O)*; 125I = [125I]*

Assays:
[1] = C18 reverse phase HPLC elution of fatty acyl peptides (hydrophobicity); assay type: physicochemical; conditions: for Elution Time: C18 reverse phase HPLC, acyl derivative of GNAAS[125I]YRR, Table 2; for elution earlier than corresponding myristoyl-peptide: C-18 reverse phase HPLC, FIG. 2
Procedure: The fatty acid analog acyl-peptide eluted 7 minutes earlier than the corresponding myristoyl peptide. The free peptide elutes in the void volume (3-5minutes).
This difference was evident when the HPLC elution characteristics of fatty acyl peptides were examined. The elution time of a particular acyl-peptide depends strongly on the peptide sequence as well as on the acyl chain attached to that peptide. For example, the elution times of fatty acyl derivatives of GNAAAARR are (in minutes) decanoic acid, 9; dodecanoic acid, 18; myristic acid, 24; and palmitic acid, 30. Elution times for fatty acyl derivatives of GNAAS[^125 I]YRR are 23 and 28 minutes for C12 and C14 fatty acids, respectively (FIG. 2). […] Such a change could alter the biological activity of myristoyl proteins.
(§1) For these Examples, each analog synthesized is characterized by ^1 H and ^13 C NMR as well as mass spectroscopy. The analogs are then characterized kinetically as NMT substrates. Briefly, fatty acid analogs are converted to their CoA esters with Pseudomonas CoA ligase and incubated with the iodinated peptide GNAAS[^125 I]YRR and a source of NMT. […] The radiolabelled peptide is then used at concentrations which will lead to 50% enzyme saturation (i.e., at its Km) for the determination of fatty acid analog kinetic characteristics. Representative analogs with sulfur or oxygen in the backbone of the fatty acid chain serve as good substrates for NMT in vitro and will compete for incorporation of ^3 H labelled myri-state into yeast proteins in vivo. In addition, these analogs differ markedly in hydrophobicity from myri-state as measured both by C18 reverse phase HPLC elution profiles and by 2-octanol/water partition coefficients. The analog CH3 O(CH2)11 COOH, for example, partitions into water 20 fold better than myristate. It is believed that these analogs will be incorporated into mammalian acylproteins in vivo and that their incorporation into these proteins will drastically alter protein processing or targeting. It is further believed that the incorporation of fatty acid analogs of both myristate and palmitate into ester linked and phosphatidyl inositol glycan linked acylproteins will also dramatically alter their properties. Since many viral proteins and oncogenes are acylated, these compounds represent a new class of potential antiviral and antineoplastic agents.

yeast NMT = molecular target: T1, yeast NMT (Saccharomyces cerevisiae, UniProt P14743); test: kinetic characterisation of fatty acid analogs as yeast NMT substrates; assay type: biochemical; conditions: for Peptide Vm: peptide GNAAS[125I]YRR varied, fatty acid analog at 15 μM; for Peptide Vm / Acyl CoA Vm: myristate control = 100%; for Acyl CoA Vm / Km: radiolabelled peptide at its Km, analog varied; for Km: read-out: Acyl CoA Km
T1 construct: 11,000-fold purified preparation of yeast NMT; endogenous in cells; host or cells: yeast (enzyme purified from yeast, 11,000-fold)
T1 sequence (P14743 1-455): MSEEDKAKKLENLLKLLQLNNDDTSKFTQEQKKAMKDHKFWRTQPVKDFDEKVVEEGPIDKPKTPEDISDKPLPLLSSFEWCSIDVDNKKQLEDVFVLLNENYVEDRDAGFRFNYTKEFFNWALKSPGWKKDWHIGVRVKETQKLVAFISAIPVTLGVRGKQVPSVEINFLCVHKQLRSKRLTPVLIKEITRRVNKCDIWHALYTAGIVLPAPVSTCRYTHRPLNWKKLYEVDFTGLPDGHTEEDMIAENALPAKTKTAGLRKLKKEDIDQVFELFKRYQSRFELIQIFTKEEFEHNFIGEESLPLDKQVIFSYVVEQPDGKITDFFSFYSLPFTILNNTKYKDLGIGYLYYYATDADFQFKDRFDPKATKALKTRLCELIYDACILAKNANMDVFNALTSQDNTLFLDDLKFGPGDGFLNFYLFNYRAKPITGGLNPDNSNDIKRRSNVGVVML
From the text: Similar results were obtained using an 11,000-fold purified preparation of yeast NMT [Towler et al., Proc. Natl. Acad. Sci. USA 84, 2708-2712 (1987)].
Other illustrative examples of the oxy- and thio-substituted fatty acid analog substrate compounds of the invention were synthesized in Examples 6 to 14 and tested in Example 15 as substrates for the yeast NMT.
as §1

wheat germ NMT = test: in vitro myristoylation assay with partially purified wheat germ NMT; assay type: biochemical
Procedure: Myristoyl CoA and fatty acid analog CoA were generated by incubation of the fatty acid or analog with CoA, ATP and CoA ligase. This reaction mixture was added to wheat germ NMT and Gly-Asn-Ala-Ala-Ser- [^125 I]Tyr-Arg-Arg in the presence of 0.03% Triton® X-100. Reaction products were characterized by reverse phase HPLC and gamma counting.
The invention is illustrated in greater detail in the following Examples 1 to 15 by the synthesis and testing of representative compounds of the invention as myristoylating enzyme substrates. Accordingly, the invention is first illustrated in Examples 1 to 5 by the chemical synthesis of a sulfur-containing analog of myristic acid, namely 11-(ethylthio)undecanoicacid, CH3 CH2 --S--(CH2)10 COOH, which is then tested in vitro as a wheat germ NMT substrate. Wheat germ NMT is a protein similar to yeast NMT. The purity and chemical identity of the synthesized compound were examined using ^1 H and ^13 C NMR as well as mass spectroscopy. The assay that was used to characterize the substrate specificity of wheat germ NMT measures the rate of attachment of a radiolabelled fatty acid to an unlabelled peptide. The fatty acid analog synthesized was nonradioactive.
Characterization of Partially Purified Wheat Germ NMT--Assays for NMT activity were performed using a procedure detailed previously by Towler and Glaser, Proc. Natl. Acad. Sci. USA 83, 2812-2816 (1986). Briefly, the in vitro assay measures the transfer of radiolabelled fatty acid from acyl CoA to a synthetic peptide substrate. The acylpeptide product is identified by reverse phase HPLC. Time and enzyme dependence were evaluated by varying the reaction time or the enzyme concentration. […] Fatty acid specificity was examined essentially as described by Towler et al., J. Biol. Chem. 262, 1030-1036 (1987), except that the peptide Gly-Ser-Ser-Lys-Ser-Lys-Pro-Lys rather than Gly-Asn-Ala-Ala-Ala-Ala-Arg-Arg was used to compare palmitate and myristate utilization by wheat germ NMT. This was necessary because of the presence of a large, peptide-independent peak which co-eluted with a palmitoyl-Gly-Asn-Ala-Ala-Ala-Ala-Arg-Arg standard. [^3 H]Palmitate and [^3 H]myristate were used in this comparison. [^14 C]fatty acids were used to compare C-10, C-12 and C-14 chain lengths. Fatty acyl CoA concentrations in these assays were determined by a modification of the method of Hosaka et al., Methods Enzymol. 71, 325-333 (1981).
Characterization of the Fatty Acid Analog--Gly-Asn-Ala-Ala-Ser-[^125 I]Tyr-Arg-Arg as prepared in Example 2, above, was tested in an in vitro myristoylation system which was modified from that used with radiolabelled fatty acids. […] 20-fold more wheat germ NMT (480-fold purified as in Example 3, above) was used for these assays than for assays which employed [^3 H] myristate. […] Double reciprocal plots were generated for the iodinated peptide with both myristic acid and the sulfur analog by altering the peptide concentration in the presence of a constant amount of fatty acid or analog. […] The assays contained 0.03% Triton X-100 to maintain the solubility of the fatty acids.

[2] = CoA ester, 40 μM iodinated peptide, 0.03% Triton X-100, FIG. 1

Molecule: CCCCCCCCCCCCCCCC(=O)O [palmitic acid, reference compound]
- elution time of fatty acyl derivative of GNAAAARR ([1]; reverse phase HPLC): 30 min

Molecule: CCCCCCCCCC(=O)O [decanoic acid, reference compound]
- elution time of fatty acyl derivative of GNAAAARR ([1]; reverse phase HPLC): 9 min

Molecule: CCCCCCCCCCCC(=O)O [dodecanoic acid, reference compound]
- elution time of fatty acyl derivative of GNAAAARR ([1]; reverse phase HPLC): 18 min
- elution time of fatty acyl derivative of GNAAS[125I]YRR ([1]; reverse phase HPLC, FIG. 2, text): 23 min

Molecule: CCCOCCCCCCCCCC(=O)O [H, 10-(Propoxy)decanoic acid]
- Peptide Vm (yeast NMT): 150%
- Acyl CoA Vm (yeast NMT): 250%
- Km (yeast NMT): 6.1 µM
- Elution Time [1]: 11 to 12 min

Molecule: CCCCOCCCCCCCCCCC(=O)O [Compound I, 11-(1-Butoxy)undecanoic acid]
- effectiveness as NMT substrate, in words (yeast NMT): less effective
- Peptide Vm (yeast NMT): 25%
- Acyl CoA Vm (yeast NMT): 80%
- Km (yeast NMT): 1 µM
- Elution Time [1]: 19 min

Molecule: CCOCCCCCCCCCCC(=O)O [B, 11-(Ethoxy)undecanoic acid]
- Peptide Vm (yeast NMT): 62%
- Acyl CoA Vm (yeast NMT): 64%
- Km (yeast NMT): 1.8 µM
- Elution Time [1]: 12 min

Molecule: 11-(ethylthio)undecanoyl-GNAAS[^125 I]YRR ({11‑(ethylthio)undecanoyl}-GNAASY(125I)RR) [fatty acid analog acyl-peptide formed by NMT from compound A and iodinated peptide GNAASYRR]
- elution earlier than corresponding myristoyl-peptide [1]: seven
- elution earlier than corresponding myristoyl-peptide ([1]; listed as 11-(ethylthio)undecanoyl-GNAASYRR[^125 I]): 7 min

Molecule: CCCCCCCCOCCCCC(=O)O [F, 5-(octyloxy)pentanoic acid]
- Peptide Vm (yeast NMT): 335%
- Acyl CoA Vm (yeast NMT): 675%
- Km (yeast NMT): 1.6 µM
- Elution Time [1]: 16 min

Molecule: CCSCCCCCCCCCCC(=O)O [A, 11-(Ethylthio)undecanoic acid]
- Km for the analog relative to myristate (wheat germ NMT; [2]): 1.5 times higher
- Vmax for the analog relative to myristate (wheat germ NMT; [2]): 3.5 times higher
- Km (wheat germ NMT; fatty acid or analog at 5 μM, peptide varied, read-out: Km of peptide substrate Gly-Asn-Ala-Ala-Ser-[125I]Tyr-Arg-Arg): 7 µM
- ability to act as a substrate for myristoyl CoA: protein N-myristoyl transferase (NMT) (wheat germ NMT; in words): leaves intact
- substrate quality of CoA ester for wheat germ NMT compared with myristoyl CoA (wheat germ NMT; in words): at least as good a substrate
- apparent maximal velocity relative to myristic acid (wheat germ NMT; peptide varied, fatty acid or analog at 5 μM): 2.3 times higher
- Km compared with C14:0 fatty acid (yeast NMT; 11,000-fold purified yeast NMT): indistinguishable
- Vmax compared with C14:0 fatty acid (yeast NMT; 11,000-fold purified yeast NMT): indistinguishable
- Peptide Vm (yeast NMT): 98%
- Acyl CoA Vm (yeast NMT): 130%
- Km (yeast NMT): 1.4 µM
- hydrophobicity compared with myristic acid, in words [1]: decreases its hydrophobicity; also recorded: significantly different
- Elution Time [1]: 18 min

Molecule: C#CCOCCCCCCCCCC(=O)O [J, 10-(2-Propynoxy)decanoic acid]
- Peptide Vm (yeast NMT): 200%
- Acyl CoA Vm (yeast NMT): 320%
- Km (yeast NMT): 6.5 µM
- Elution Time [1]: 9 min

Molecule: CCCCCCCCSCCCCC(=O)O [C, 5-(Octylthio)pentanoic acid]
- Peptide Vm (yeast NMT): 213%
- Acyl CoA Vm (yeast NMT): 160%
- Km (yeast NMT): 1.5 µM
- Elution Time [1]: 24 min

Molecule: CCCSCCCCCCCCCC(=O)O [G, 10-(Propylthio)decanoic acid]
- Peptide Vm (yeast NMT): 245%
- Acyl CoA Vm (yeast NMT): 250%
- Km (yeast NMT): 1.5 µM
- Elution Time [1]: 18 min

Molecule: COCCCCCCCCCCC(=O)O [D, 11-(Methoxy)undecanoic acid]
- Peptide Vm (yeast NMT): 232%
- Acyl CoA Vm (yeast NMT): 163%
- Km (yeast NMT): 6.9 µM
- Elution Time [1]: 12 to 13 min
